22 compounds from patent US20240309038A1, “NOVEL GALACTOSIDE INHIBITOR OF GALECTINS” (GALECTO BIOTECH AB, priority 2020, published 2024) can be followed below.

SMILES strings stand for the structures.

Gal-3, sequence (P17931 whole entry, species assumed): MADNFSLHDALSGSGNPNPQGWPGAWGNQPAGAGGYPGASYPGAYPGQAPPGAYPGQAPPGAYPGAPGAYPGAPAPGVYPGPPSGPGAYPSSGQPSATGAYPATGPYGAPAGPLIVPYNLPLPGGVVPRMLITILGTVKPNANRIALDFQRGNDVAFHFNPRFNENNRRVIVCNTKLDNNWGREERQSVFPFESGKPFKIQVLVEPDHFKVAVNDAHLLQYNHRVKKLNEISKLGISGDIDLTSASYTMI

This assay concerns the target Gal-3 (Homo sapiens, UniProt P17931). The experiment in a line: Fluorescence anisotropy assay, inhibition of galectin / fluorescein tagged saccharide probe interaction. The class given is binding. The method, then:
The affinity of Example 1-59 for galectins were determined by a fluorescence anisotropy assay where the compound was used as an inhibitor of the interaction between galectin and a fluorescein tagged saccharide probe as described Sörme, P., Kahl-Knutsson, B., Huflejt, M., Nilsson, U. J., and Leffler H. (2004) Fluorescence polarization as an analytical tool to evaluate galectin-ligand interactions. Anal. Biochem. 334: 36-47, (Sarme et al., 2004)
(In general: In fluorescence polarisation assays a small probe gives low polarisation when free and higher when bound to something large.)
Broadly, the Kd is the free concentration of one partner at which half of the binding sites on the other are occupied at equilibrium, for simple one-to-one binding. Lower therefore signals higher affinity. In the case of `Cc1nc([C@@H]2OC(CO)[C@H](O)C(n3cc(-c4cc(F)c(Cl)c(F)c4)c(C(=O)O)n3)C2O)n(-c2cc(Cl)ccc2C(F)(F)F)n1` (stereo in doubt) [Example 30, 1-{5-{3-[3-Carboxy-4-(4-chloro-3,5-difluorophenyl)-1H-1,2-pyrazol-1-yl]-3-deoxy-β-D-galactopyranosyl}-3-methyl-1H-1,2,4-triazol-1-yl}-5-chloro-2-(trifluoromethyl)benzene], the affinity, expressed as Kd, was 6 nM.
In turn, `Cc1nc([C@@H]2OC(CO)[C@H](O)C(n3cc(-c4cc(F)c(Cl)c(F)c4)c(C#N)n3)C2O)n(-c2cc(Cl)ccc2C(F)(F)F)n1` (stereo in doubt) [Example 31, 1-{5-{3-[4-(4-Chloro-3,5-difluorophenyl)-3-cyano-1H-1,2-pyrazol-1-yl]-3-deoxy-β-D-galactopyranosyl}-3-methyl-1H-1,2,4-triazol-1-yl}-5-chloro-2-(trifluoromethyl)benzene] gave a Kd of 12 nM.
On to `Cc1nc([C@@H]2OC(CO)[C@H](O)C(n3cc(-c4cc(F)c(Cl)c(F)c4)c(C(N)=O)n3)C2O)n(-c2cc(Cl)ccc2C(F)(F)F)n1` (stereo in doubt) [Example 32, 1-{5-{3-[3-Aminocarbonyl-4-(4-chloro-3,5-difluorophenyl)-1H-1,2-pyrazol-1-yl]-3-deoxy-β-D-galactopyranosyl}-3-methyl-1H-1,2,4-triazol-1-yl}-5-chloro-2-(trifluoromethyl)benzene], for which the Kd is 23 nM.
Take `Cc1nc([C@@H]2OC(CO)[C@H](O)C(n3cc(-c4cc(F)c(F)c(F)c4)cn3)C2O)n(-c2ncc(Cl)s2)n1` (stereo in doubt) [Example 33, 5-Chloro-2-{5-{3-deoxy-3-[4-(3,4,5-trifluorophenyl)-1H-1,2-pyrazol-1-yl]-β-D-galactopyranosyl}-3-methyl-1H-1,2,4-triazol-1-yl}-thiazole]: the dissociation constant (Kd) is 520 nM.
Compound `Cc1nc([C@@H]2OC(CO)[C@H](O)C(n3cc(-c4cc(F)c(F)c(F)c4)cn3)C2O)n(-c2ccc3ncsc3c2)n1` (stereo in doubt) [Example 34, 6-{5-{3-Deoxy-3-[4-(3,4,5-trifluorophenyl)-1H-1,2-pyrazol-1-yl]-β-D-galactopyranosyl}-3-methyl-1H-1,2,4-triazol-1-yl}benzothiazole] registered a Kd of 9 nM.
Compound `CCc1nc2ccc(-n3nc(C)nc3[C@@H]3OC(CO)[C@H](O)C(n4cc(-c5cc(F)c(F)c(F)c5)cn4)C3O)cc2s1` (stereo in doubt) [Example 35, 6-{5-{3-Deoxy-3-[4-(3,4,5-trifluorophenyl)-1H-1,2-pyrazol-1-yl]-β-D-galactopyranosyl}-3-methyl-1H-1,2,4-triazol-1-yl}-2-ethylbenzothiazole] gave a Kd of 12 nM.
As to `Cc1nc([C@@H]2OC(CO)[C@H](O)C(n3cc(-c4cc(F)c(F)c(F)c4)cn3)C2O)n(-c2ccc3nc(C(F)(F)F)sc3c2)n1` (stereo in doubt) [Example 36, 6-{5-{3-Deoxy-3-[4-(3,4,5-trifluorophenyl)-1H-1,2-pyrazol-1-yl]-β-D-galactopyranosyl}-3-methyl-1H-1,2,4-triazol-1-yl}-2-(trifluoromethyl)benzothiazole], the affinity, expressed as Kd, was 230 nM.
Turning to `Cc1nc([C@@H]2OC(CO)[C@H](O)C(n3cc(-c4cc(F)c(F)c(F)c4)cn3)C2O)n(-c2cc3sc(C)nc3cc2F)n1` (stereo in doubt) [Example 37, 6-{5-{3-Deoxy-3-[4-(3,4,5-trifluorophenyl)-1H-1,2-pyrazol-1-yl]-β-D-galactopyranosyl}-3-methyl-1H-1,2,4-triazol-1-yl}-5-fluoro-2-methylbenzothiazole], the Kd worked out at 16 nM.
Compound `Cc1nc([C@@H]2OC(CO)[C@H](O)C(n3cc(-c4cc(F)c(F)c(F)c4)cn3)C2O)n(-c2ccc3nc(C)sc3c2F)n1` (stereo in doubt) [Example 38, 6-{5-{3-Deoxy-3-[4-(3,4,5-trifluorophenyl)-1H-1,2-pyrazol-1-yl]-β-D-galactopyranosyl}-3-methyl-1H-1,2,4-triazol-1-yl}-7-fluoro-2-methylbenzothiazole] displayed a Kd of 210 nM.
To `Cc1nc([C@@H]2OC(CO)[C@H](O)C(n3cc(-c4cc(F)c(F)c(F)c4)cn3)C2O)n(-c2cc(F)c3nc(C)sc3c2)n1` (stereo in doubt) [Example 39, 6-{5-{3-Deoxy-3-[4-(3,4,5-trifluorophenyl)-1H-1,2-pyrazol-1-yl]-β-D-galactopyranosyl}-3-methyl-1H-1,2,4-triazol-1-yl}-4-fluoro-2-methylbenzothiazole] belongs 10 nM.
The compound `Cc1nc([C@@H]2OC(CO)[C@H](O)C(n3cc(-c4cc(F)c(F)c(F)c4)cn3)C2O)n(-c2ccc3nc(C)sc3c2Cl)n1` (stereo in doubt) [Example 40, 7-Chloro-6-{5-{3-deoxy-3-[4-(3,4,5-trifluorophenyl)-1H-1,2-pyrazol-1-yl]-β-D-galactopyranosyl}-3-methyl-1H-1,2,4-triazol-1-yl}-2-methylbenzothiazole] gave an equilibrium dissociation constant (Kd) of 260 nM.
To `Cc1nc([C@@H]2OC(CO)[C@H](O)C(n3cc(-c4cc(F)c(F)c(F)c4)cn3)C2O)n(-c2cc(Cl)c3nc(C)sc3c2)n1` (stereo in doubt) [Example 41, 4-Chloro-6-{5-{3-deoxy-3-[4-(3,4,5-trifluorophenyl)-1H-1,2-pyrazol-1-yl]-β-D-galactopyranosyl}-3-methyl-1H-1,2,4-triazol-1-yl}-2-methylbenzothiazole] belongs 10 nM; to `Cc1nc([C@@H]2OC(CO)[C@H](O)C(n3cc(-c4cc(F)c(F)c(F)c4)cn3)C2O)n(-c2cc(C#N)c3nc(C)sc3c2)n1` (stereo in doubt) [Example 42, 4-Cyano-6-{5-{3-deoxy-3-[4-(3,4,5-trifluorophenyl)-1H-1,2-pyrazol-1-yl]-β-D-galactopyranosyl}-3-methyl-1H-1,2,4-triazol-1-yl}-2-methylbenzothiazole], 12 nM.
As to `Cc1nc([C@@H]2OC(CO)[C@H](O)C(n3cc(-c4cc(F)c(F)c(F)c4)cn3)C2O)n(-c2cc3sc(C)nc3cc2Br)n1` (stereo in doubt) [Example 43, 5-Bromo-6-{5-{3-deoxy-3-[4-(3,4,5-trifluorophenyl)-1H-1,2-pyrazol-1-yl]-β-D-galactopyranosyl}-3-methyl-1H-1,2,4-triazol-1-yl}-2-methylbenzothiazole], the dissociation constant Kd amounted to 11 nM.
In the case of `Cc1nc([C@@H]2OC(CO)[C@H](O)C(n3cc(-c4cc(F)c(F)c(F)c4)cn3)C2O)n(-c2cc3sc(C)nc3cc2C#N)n1` (stereo in doubt) [Example 44, 5-Cyano-6-{5-{3-deoxy-3-[4-(3,4,5-trifluorophenyl)-1H-1,2-pyrazol-1-yl]-β-D-galactopyranosyl}-3-methyl-1H-1,2,4-triazol-1-yl}-2-methylbenzothiazole], the Kd was found to be 17 nM.
Regarding `Cc1nc([C@@H]2OC(CO)[C@H](O)C(n3cc(-c4cc(F)c(F)c(F)c4)cn3)C2O)n(-c2cnc3nc(C)sc3c2)n1` (stereo in doubt) [Example 45, 6-{5-{3-Deoxy-3-[4-(3,4,5-trifluorophenyl)-1H-1,2-pyrazol-1-yl]-β-D-galactopyranosyl}-3-methyl-1H-1,2,4-triazol-1-yl}-2-methylthiazolo[4,5-b]pyridine], binding was characterised by a dissociation constant (Kd) of 35 nM.
`Cc1nc([C@@H]2OC(CO)[C@H](O)C(n3cc(-c4cc(F)c(F)c(F)c4)cn3)C2O)n(-c2cc(C#N)ccc2C(F)(F)F)n1` (stereo in doubt) [Example 46, 5-Cyano-1-{5-{3-deoxy-3-[4-(3,4,5-trifluorophenyl)-1H-1,2-pyrazol-1-yl]-β-D-galactopyranosyl}-3-methyl-1H-1,2,4-triazol-1-yl}-2-(trifluoromethyl)benzene] showed a Kd of 19 nM.
The compound `Cc1nc([C@@H]2OC(CO)[C@H](O)C(n3cc(-c4cc(F)c(F)c(F)c4)c(-c4ccccc4)n3)C2O)n(-c2cc(Cl)ccc2C(F)(F)F)n1` (stereo in doubt) [Example 47, 5-Chloro-1-{5-{3-deoxy-3-[4-(3,4,5-trifluorophenyl)-3-phenyl-1H-1,2-pyrazol-1-yl]-β-D-galactopyranosyl}-3-methyl-1H-1,2,4-triazol-1-yl}-2-(trifluoromethyl)benzene] yielded a Kd of 80 nM.
In turn, `Cc1nc([C@@H]2OC(CO)[C@H](O)C(n3cc(-c4cc(F)c(F)c(F)c4)c(-c4ccccc4F)n3)C2O)n(-c2cc(Cl)ccc2C(F)(F)F)n1` (stereo in doubt) [Example 48, 5-Chloro-1-{5-{3-deoxy-3-[4-(3,4,5-trifluorophenyl)-3-(2-fluorophenyl)-1H-1,2-pyrazol-1-yl]-β-D-galactopyranosyl}-3-methyl-1H-1,2,4-triazol-1-yl}-2-(trifluoromethyl)benzene] displayed a Kd of 54 nM.
In turn, `Cc1nc([C@@H]2OC(CO)[C@H](O)C(n3cc(-c4cc(F)c(F)c(F)c4)c(C)n3)C2O)n(-c2cc(Cl)ccc2C(F)(F)F)n1` (stereo in doubt) [Example 49, 5-Chloro-1-{5-{3-deoxy-3-[4-(3,4,5-trifluorophenyl)-3-methyl-1H-1,2-pyrazol-1-yl]-β-D-galactopyranosyl}-3-methyl-1H-1,2,4-triazol-1-yl}-2-(trifluoromethyl)benzene] had a Kd of 13 nM.
`Cc1nc([C@@H]2OC(CO)[C@H](O)C(n3cc(-c4cc(F)c(F)c(F)c4)c(Cc4ccccc4)n3)C2O)n(-c2cc(Cl)ccc2C(F)(F)F)n1` (stereo in doubt) [Example 50, 1-{5-{3-[3-Benzyl-4-(3,4,5-trifluorophenyl)-1H-1,2-pyrazol-1-yl]-3-deoxy-β-D-galactopyranosyl}-3-methyl-1H-1,2,4-triazol-1-yl}-5-chloro-2-(trifluoromethyl)benzene] came in with a dissociation constant Kd of 36 nM.
`Cc1nc([C@@H]2OC(CO)[C@H](O)C(n3cc(-c4cc(F)c(F)c(F)c4)c(C#N)n3)C2O)n(-c2cc(Cl)ccc2C(F)(F)F)n1` (stereo in doubt) [Example 51, 5-Chloro-1-{5-{3-[3-cyano-4-(3,4,5-trifluorophenyl)-1H-1,2-pyrazol-1-yl]-3-deoxy-β-D-galactopyranosyl}-3-methyl-1H-1,2,4-triazol-1-yl}-2-(trifluoromethyl)benzene] returned a Kd of 15 nM.
